The numbers were not newly measured in patent US8846088B2, “Melt granulation of a composition containing a calcium-containing compound” (Takeda Nycomed AS, priority 2005, dated 2014), which cites them from elsewhere.

The subject of the data set is elderly patients. Conditions: annual injections of 150.000-300.000 IU.

Take vitamin D: the overall fracture rate result is listed as “significant reduction in overall fracture rate” and the “rate of hip fracture” value was “not in the rate of hip fracture”.
